The source of these data is patent publication US9724337B2, “AG-205 for the treatment of breast cancer” (University of Kentucky Research Foundation, priority 2009, dated 2017).

In series [1] the test system is A431. The experiment in a line: AG-205 viability assay in A431 cells. As to conditions: A431, epitheloid, serum-starved, EGFR wild-type. The format is cell-based.
Series [2] has as its system MDA-MB-468 cells. The experiment in a line: Viability / proliferation of MDA-MB-468 cells. The format is cell-based, human. How it is done:
(§1) Tissue culture. MDA-MB-468 cells were a kind gift from Dr. Rina Plattner of the University of Kentucky and were maintained in medium consisting of Dulbecco's Modified Eagle Medium containing 10% serum supreme (Fisher) and antibiotics. Cells were grown at 37° C. in 5% CO2 in air. A549 and HCC827 lung cancer cells, as well as SK-Br-3 breast cancer cells were obtained from the ATCC (American Type Culture Collection) and were grown under the same conditions. The H1650 lung cancer cell line was a kind gift from Dr. Heinz Kohler of the University of Kentucky. The Pgrmc1 ligand AG-205 was purchased from Timtec, Inc. The EGFR inhibitor AG1478 was from Biomol, Inc. and was used at a concentration range of 0.8-40 μM.
(§2) Proliferation, anchorage-independent growth and migration assays. For growth curves, cells were plated in 24 well dishes and grown in 10% serum-containing medium. At various times, the cells were harvested with trypsin and fixed with formaldehyde added to a final concentration of 3.7%. Following the harvest of the final time point, the cells from each time point were counted using a Bright-line hemocytometer (Hausser Scientific).
(§3) MTT viability assays were performed as described previously. Briefly, cells were plated in 96-well tissue culture dishes and grown in various media with different drug doses. The cells were then incubated with 0.5 mg/ml of 3-[4,5-dimethylthiazol-2-y]-2,5-diphenyltetrazolium bromide for 1.5 hours, at which time the media was removed, the precipitated crystals were dissolved in dimethyl sulfoxide, and the absorbance at 590 nm was measured using a Bio-Tek μQuant spectrophotometer.

Series [3] concerns A549 cells. The experiment in a line: Viability of A549 cells. The format is cell-based, human. The procedure: (A) Pgrmc1 (SEQ ID NO: 7) shares homology with AtMAPR2 (SEQ ID NO: 8) (underlined residues), which was the target for a screen for small molecule ligands. The putative heme-binding Tyr106 and Tyr112 are indicated with black boxes. (B) The molecular structure of AG-205 includes multiple aromatic components. (C) Spectroscopic scan of Pgrmc1 with vehicle control compared with vehicle plus 50 µM AG-205. The decrease in relative absorbance at 400 nm is consistent with an AG-205-induced change in the spectral properties of Pgrmc1-heme. The scan is representative of four separate scans using different Pgrmc1 protein preparations. The lower scan is a comparison of purified Pgrmc1 without and with the vehicle control (DMSO). Panels D (A549 cells) and E (MDA-MB-231 cells) are viability assays of cells maintained in 0.1% serum (solid line) or 10% serum (dashed line) and treated with increasing doses of AG-205. Percent viability was determined by cell counting, and “% viability” refers to the cell number relative to the untreated control.
as §1, §2, §3

For series [4], the system named is H157. The experiment in a line: AG-205 viability assay in H157 cells. The format is cell-based. As to conditions: H157, lung, serum-starved, EGFR wild-type. The procedure: as §2, §3
In series [5] the test system is H358. As to the kind of experiment: AG-205 viability assay in H358 cells. The format is cell-based. To be noted: H358, lung, serum-starved, EGFR wild-type. The procedure: as §2, §3
For series [6], the system named is H1650. The experiment in a line: AG-205 viability assay in H1650 cells. The format is cell-based. The procedure: as §1
(§4) Proliferation, anchorage-independent growth and migration assays. For growth curves, cells were plated in 24 well dishes and grown in 10% serum-containing medium. […] Following the harvest of the final time point, the cells from each time point were counted using a Bright-line hemocytometer (Hausser Scientific).
(§5) MTT viability assays were performed as described previously. […] The cells were then incubated with 0.5 mg/ml of 3-[4,5-dimethylthiazol-2-y]-2,5-diphenyltetrazolium bromide for 1.5 hours, at which time the media was removed, the precipitated crystals were dissolved in dimethyl sulfoxide, and the absorbance at 590 nm was measured using a Bio-Tek μQuant spectrophotometer.

The subject of series [7] is HCC827. As to the kind of experiment: AG-205 viability assay in HCC827 cells. The format is cell-based. The procedure: as §1, §4, §5

Structures are written as SMILES. pIC50: −log10 of the molar value.

As for `Cc1ccc2c(c1)[C@H]1CN(C)CC[C@H]1N2C(=O)CSc1nnnn1-c1ccc(Cl)cc1` [AG-205], the pIC50 in series [1] is 5.10; in series [2] (MDA-MB-468, breast, serum-starved, EGFR wild-type, read-out: IC50 values for AG-205, Serum-starved), 4.92; in series [3] (A549, lung, serum-starved, EGFR wild-type, read-out: IC50 values for AG-205, Serum-starved), 4.82; in series [4] it was 5.00; in series [5], 4.92; in series [6] (H1650, lung, serum-starved, EGFR ΔE746-A750), below 4.00. In addition, the pIC50 in series [7] (HCC827, lung, serum-starved, EGFR ΔE746-A750) was below 4.00. For the same compound, the cell viability entry is “marked loss of viability” in series [2] (MDA-MB-468 cells, 20 μM dose, 72-96 hours after treatment) and “marked loss of viability” in series [3] (A549 cells, 20 μM dose, 72-96 hours after treatment). In addition, the “viability under normal culture conditions” value in series [2] (MDA-MB-468 cells, ligand abundant (10% serum)) is recorded as “slight increase in viability”. Moreover, the “cell growth inhibition” value in series [2] (MDA-MB-468 cells, wild-type EGFR) is “efficiently inhibited cell growth”; in series [3] (A549 cells, wild-type EGFR) it was “efficiently inhibited cell growth”. Besides, the “growth inhibitory activity depending on culture conditions” value in series [2] (low serum versus 10% serum, P=0.0006 for MDA-MB-468 at 20 μM) is “killing cells grown in low serum conditions but not 10% serum”. Also, the “decrease in viability / cells killed” value in series [3] (A549 cells, single agent) was found to be 47%. In addition, the “toxicity in Pgrmc1-inhibited A549 cells” value in series [3] (Pgrmc1-inhibited versus control A549 cells, after 36 hours, P=0.0001) is “decreased toxicity”. Besides, the “viability of Pgrmc1-hbd-expressing cells” value in series [3] (cells expressing heme binding-deficient mutant, increasing doses of AG-205, cell counting) is “partially reversed the loss of viability”. Also, the “sensitivity to growth inhibition” value in series [6] (H1650 cells, ΔE746-A750 EGFR) is reported as “relatively insensitive”; in series [7] (HCC827 cells, ΔE746-A750 EGFR) it was “relatively insensitive”.
